Here are results for one molecule from US20060194828A1, “Vitamin comprising pyroloquinoline quinone and use thereof” (priority 2003, published 2006).

Each structure is given as a SMILES string. Entries after “also recorded” stand apart in the source; their conditions may differ.

The test system of experiment [1] is AASDH activity (mU26). Put plainly: PQQ-deficient feedstuff given to mice, levels of amino acids and AAA in blood. It counts as in vivo, mouse. Particulars: PQQ-deficient vs PQQ-added (100 ng PQQ·2Na per gram) feedstuff, ICR female mice, 20 days. The source says:
The mice were fed with feedstuff, to which PQQ had not been added (−PQQ) or had been added (+PQQ) and which had chemically been limited, for 20 days. Thereafter, the peripheral blood was collected therefrom, and amino acids contained in the blood were quantified using an amino acid analyzer. The amount of lysine (A) was indicated with a percentage to the total amount of amino acids in blood. The amount of 2-aminoadipic acid was normalized with lysine (B) or glycine (C). The horizontal line represents the mean value of mice in each group.
In order to clarify the role of PQQ influenced on AASDH activity, feedstuff containing no PQQ was given to mice, and such influence was examined. Chemically defined feedstuff (to which no PQQ was added or 100 ng PQQ·2Na was added per gram of feedstuff) was produced in accordance with the publication (Killgore, J. et al. (1989) Science 245, 850-852; Steinberg, F. M. et al. (1994) J. Nutr. 124, 744-753). The thus produced feedstuff was given to virgin female mice (ICR, 4-week-old) for 20 days. The levels of various amino acids and AAA in blood were measured by the above-described method. […] In particular, when normalization was carried out with the amount of lysine, AAA was reduced most clearly (FIG. 6B).

The subject of experiment [2] is PQQ-deficient mice. Particulars: skin fragility, skeletal abnormality, decreased immune response, poor reproduction and growth; cited from earlier work.

Turning to `O=C(O)c1cc(C(=O)O)c2c(n1)C(=O)C(=O)c1cc(C(=O)O)[nH]c1-2` [PQQ, pyrroloquinoline quinone], the “level of AAA (2-aminoadipic acid) in blood” value in experiment [1] (normalized with lysine or glycine) is listed as “reduced more significantly; also recorded: significantly decreased in PQQ-deficient mice”. Besides, the “amount of lysine in blood” value in experiment [1] (percentage to total amino acids in blood) is listed as “not significantly different; also recorded: not changed”. For the same molecule, in experiment [2], the “amount of PQQ added to feedstuff that recovered the abnormalities of PQQ-deficient mice” value was ≥ 800 ng per gram of feedstuff.
